The values that follow come from patent US20120202751A1, “METHODS OF MONITORING ENDOPLASMIC RETICULUM (ER) STRESS RESPONSE” (The Board of trustees of the Leland Stanford Junior …, priority 2009, published 2012).

One assay concerns XBP1-Luc construct. Kind of assay: XBP1-luc reporter luciferase activity in HT1080 cells. It counts as cell-based, human. Conditions: for UPR reporter activity, XBP1-luc construct: HT1080 cells, luciferase activity measured after 24 hours. As to the method: (§1) FIG. 1 (A) Upper Panel: is a schematic representation of the XBP1-luc reporter construct. Lower panel: is a bar graph of in vitro luciferase activity from different reporter constructs in response to different stresses. HT 1080 cells expressing either a XBP1-luc construct, or an ATF4 or CMV-driven luciferase gene were cultured in 10 μg/ml tunicamycin, glucose depletion, or severe hypoxia (<0.02% O2) for 24 hours to induce ER stress. (B) is a graphical representation of the incidence of breast carcinomas in Tag mice and Tag-Luc double transgenic mice. […] Tumor areas are outlined. Lower panel: are overlays of in vivo bioluminescence on the pictures in the middle panel. (D) is a series of fluorescent micrographs of tissue sections from tumors from Tag-Luc and Tag mice. Frozen sections were stained with antiluciferase and anti-XBP1 (top left two panels), anti-luciferase and anti-BiP (bottom left two panels), anti-luciferase and anti-eIF2α (top right two panels), or the control secondary antibodies (bottom right two panels).
(B) is a bar graph of in vitro XBP1-luc activity in preparations of spontaneous primary tumors from Tag and Tag-Luc mice cultured under normoxic or hypoxic conditions for 48 h. (C) Left panel: are photographs with overlays of in vivo bioluminescence in Tag-Luc mice treated with vehicle or 50 mg/kg DCA (dichloroacetic acid) b.i.d. for 2 days. Bioluminescence was measured after 32 hours. Right panel: is a bar graph of in vivo bioluminescence as shown in the left panel of FIG. 5C and is the average of two experiments. […] Luciferase activity was measured after 24 hours.
The first 208 amino acids of the unspliced human XBP1-1 was amplified by PCR and subcloned into pEGFP-N1 (Clontech, Mountain View, Calif.). This plasmid was subsequently digested with Bam HI and Not Ito remove the EGFP and a PCR-generated firefly luciferase gene was cloned downstream of the XBP1-1 gene such that the luciferase gene was in frame only in the “spliced” reading frame. […]

The test system of a further assay is ATF4-Luc. Nature of the assay: ATF4-luc UPR reporter luciferase activity in HT1080 cells. It counts as cell-based, human. Conditions: for UPR reporter activity, ATF4-luc construct: luciferase activity measured after 24 hours. As to the method: as §1
(B) is a bar graph of in vitro XBP1-luc activity in preparations of spontaneous primary tumors from Tag and Tag-Luc mice cultured under normoxic or hypoxic conditions for 48 h. (C) Left panel: are photographs with overlays of in vivo bioluminescence in Tag-Luc mice treated with vehicle or 50 mg/kg DCA (dichloroacetic acid) b.i.d. for 2 days. Bioluminescence was measured after 32 hours. Right panel: is a bar graph of in vivo bioluminescence as shown in the left panel of FIG. 5C and is the average of two experiments. (D) is a bar graph of in vitro luciferase activity in HT1080 cells containing CMV, XBP1, or ATF4-luciferase reporters after treatment with 2-DG, DCA, or glucose deprivation. Luciferase activity was measured after 24 hours.
This reporter construct was tested in vitro. The human fibrosarcoma cell line HT1080 was obtained from ATCC (Manassas, Va.). Cells were maintained at 37° C. with 5% CO2 in DMEM supplemented with 10% FBS and 1% penicillin-streptomycin antibiotics. HT1080 cells (FIG. 1A, lower panel) were stably transfected with the XBP1-Luc construct. […]

The subject of assay [1] is XBP1-luc activity. Kind of assay: In vitro luciferase activity of cultured Hi and Lo primary tumors from Tag-Luc mice. It counts as cell-based. The following applies: primary Tag-Luc tumors after 7-10 days of in vitro culture. Here is the method: FIG. 3 (A) is a bar graph of in vitro luciferase activity of primary tumors from Tag-Luc mice with “Hi” or “Lo” in vivo bioluminesence or tumors from Tag mice after 7-10 days of in vitro culture. Luciferase activity was also measured following tunicamycin treatment. (B) Left panels: are photographs of Tag-Luc mice bearing tumors with synchronous Hi (dark outline in the upper panel) and Lo (light outlines) in vivo bioluminescence (overlays, lower panel). Right panels: are photographs, including bioluminescent overlay, of transplanted Hi (dark circle/arrow; upper left flank) and Lo (light circles/arrows) primary tumors from Tag-Luc mice 14 days after subcutaneously transplantation into four separate quadrants on the dorsal surface of syngeneic FVB mice. (C) is a bar graph of in vivo bioluminesence of primary and transplanted Hi and Lo tumors. Results are the average of four independent experiments.
Tumors isolated ex vivo from Tag-Luc transgenic mice had 14.5-fold greater luciferase activity than tumors isolated from control Tag transgenic mice (FIG. 2A, middle panel; p=0.0001; n=16 for Tag mice, n=33 for Tag-Luc mice). […] Luciferase activity was detected on a Monolight 2010 (Analytic Luminescence Laboratory, San Diego, Calif.).

For assay [2], the system named is XBP1-luc activity. Nature of the assay: In vivo bioluminescence of primary tumors in Tag-Luc mice. Here is the method: Mice were injected with fluorescently-labeled 2-DG or RGD peptide or dye alone and imaged 24 hours later for in vivo bioluminescence and 2-DG, RGD peptide, and dye uptake. Dark arrows indicate tumors with high in vivo bioluminescence and light arrows indicate tumors with low in vivo bioluminescence. (B) is a plot of 2-DG signal against in vivo bioluminescence for the mice imaged in FIG. 4(A). (C) is a bar graph of in vivo bioluminescence in autochthonous tumors after 24 hours of glucose deprivation. (D) Left panel: are photographs with overlays of in vivo bioluminescence of Tag-Luc mice at 0 and 12 hours after treatment with 2 mg of 2-DG or vehicle i.p. Arrows indicate palpable tumors. […]
(B) is a bar graph of in vitro XBP1-luc activity in preparations of spontaneous primary tumors from Tag and Tag-Luc mice cultured under normoxic or hypoxic conditions for 48 h. […] Bioluminescence was measured after 32 hours. […] Luciferase activity was measured after 24 hours.
In vivo bioluminescence, which corresponds to XBP1-Luc activity, was detected noninvasively using the IVIS imaging system (Caliper LifeSciences, Hopkinton, Mass.). […] Image analysis and quantification was performed using Living Image software (Caliper LifeSciences, Hopkinton, Mass.). All images were analyzed with a binning of 10. […]

Take tunicamycin: in the assay on XBP1-Luc construct (HT1080 cells stably transfected with XBP1-Luc, 10 μg/ml tunicamycin, 24 hours, compared to CMV-Luc control cells), the “luciferase activity, XBP1-Luc cells” value is listed as “strongly induced luciferase activity”. Also, the ATF4-Luc reporter induction result in the assay on ATF4-Luc (10 μg/ml tunicamycin, 24 hours) is given as “also induced”. Further, the “XBP1-luc activity in Hi and Lo tumors” value in the assay with XBP1-luc activity [1] is reported as “increased”.
Regarding `O=C(O)C(Cl)Cl` [DCA, dichloroacetic acid], in the assay on XBP1-Luc construct, the “UPR reporter activity, XBP1-luc construct” value was “did not induce UPR reporter activity”. In addition, in the assay with ATF4-Luc, the “UPR reporter activity, ATF4-luc construct” value is listed as “did not induce UPR reporter activity”. In addition, the “increase in bioluminescent signal of primary Tag-Luc tumors” value in the assay with XBP1-luc activity [2] (repeated injections, 50 mg/kg b.i.d. for 2 days, measured after 32 hours) is given as 2.0 fold.
For the compound `O=CC[C@@H](O)[C@H](O)[C@H](O)CO` [Compound 2-DG, 2-deoxy-d-glucose], in the assay on XBP1-Luc construct, the “UPR reporter activity, XBP1-luc construct” value is recorded as “did induce UPR reporter activity”. The “UPR reporter activity, ATF4-luc construct” value in the assay with ATF4-Luc is recorded as “did induce UPR reporter activity”. Besides, in the assay with XBP1-luc activity [2] (Tag-Luc mice, 2 mg 2-DG i.p., 12 hours, p=0.01), the “increase in tumor bioluminescence compared to control mice” value is on record as 1.78 fold.
